Article PMC2791885 (Journal of nuclear medicine : official publication, Society …, 2009)

How the values were obtained:
[1] = tested on: PDE4; assay: PET compartmental modeling of brain and plasma data
[2] = ultrafiltration, 5 control animals; cited from earlier work
[3] = transient equilibrium, range over scans

concentration of free radioligand calculated with Equation 2 ([1]; baseline scans): 0.08 to 0.17 nM
concentration of free radioligand calculated with Equation 2 ([1]; partially blocked scans): 0.29 to 3.00 nM
calculated concentration of free ligand in brain [1, 3]: 0.07 to 5.68 nM
calculated concentration of specifically bound ligand in brain [1, 3]: 3.63 to 88.3 nM
SMILES: COc1ccc([C@@H]2CNC(=O)C2)cc1OC1CCCC1 [(R)-rolipram]
plasma-free fraction (fP) [2]: 30.5% ± 3.1
